Where a SMILES comes first, the peptide text is derived from it. The star is where a group is joined. Myristoyl = CCCCCCCCCCCCCC(=O)*
Tests used:
[1] = system: MDA-MB-231 cells; assay type: cell-based, human; conditions: 50 μM peptide, 48 hours, n = 1;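 as to COI, Live Single Cells (Cell Count): live means Hoechst-negative events among single cells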
Excerpt: (§1) Non-adherent cells were removed during the washing steps.

[2] = system: CD44^hiCD24^lo CSCs in MDA-MB-231 cells; test: FACS analysis of CD44^hiCD24^lo cancer stem cells in MDA-MB-231 cells treated with P1 analogues; assay type: cell-based, human; conditions: 50 μM peptide, 48 hours; for CD44^hiCD24^lo CSCs (%) / COI, Live Single CD44^hiCD24^lo CSCs (Cell Count): n = 1; for Average Inhibition of CSCs (%) / CD44^hiCD24^lo CSCs (%) Repeat 1 / CD44^hiCD24^lo CSCs (%) Repeat 2 / CD44^hiCD24^lo CSCs (%) Repeat 3: n = 3
Protocol: Analogues of P1 (Table 6) were designed and synthesized in accordance with the procedure of Example 5. The ability of these analogues to inhibit cancer stem cells was determined using FACS analysis on MDA-MB-231 cells, which constitutively contain approximately 90% CD44^hiCD24^lo cancer stem cells, treated with the peptides.
as §1

CCCCCCCCCCCCCC(=O)N[C@@H](CC(C)C)C(=O)N[C@H](C(=O)N[C@@H](Cc1ccccc1)C(=O)N[C@H](C(=O)N[C@@H](Cc1ccccc1)C(=O)N[C@@H](CCCNC(=N)N)C(=O)N[C@@H](CC(C)C)C(=O)N[C@@H](CCCNC(=N)N)C(=O)N[C@@H](CCCCN)C(=O)NCC(=O)N[C@@H](CCCNC(=N)N)C(=O)N[C@@H](CCSC)C(=O)N[C@@H](CCC(=O)O)C(=O)N[C@@H](CC(=O)O)C(=O)N[C@H](C(=O)N[C@@H](CCCCN)C(=O)N[C@@H](CCCCN)C(N)=O)C(C)C)[C@@H](C)CC)[C@@H](C)O [Peptide 2853834, Myristoyl-LTFIFRLRKGRMEDVKK-NH2] (Myristoyl-LTFIFRLRKGRMEDVKK-NH2)
COI (Cell Count) [1]: 890 | COI, Live Single Cells (Cell Count) [1]: 382 | COI, Single (Cell Count) [1]: 660 | Total Cell Count [1]: 4207 | Inhibition of CSCs (%) Repeat 1 [2]: 91.98% | Inhibition of CSCs (%) Repeat 2 [2]: 92.08% | Inhibition of CSCs (%) Repeat 3 [2]: 92.04% | CD44^hiCD24^lo CSCs (%) [2]: 5.76% | COI, Live Single CD44^hiCD24^lo CSCs (Cell Count) [2]: 22 | Average Inhibition of CSCs (%) [2]: 92.03% | CD44^hiCD24^lo CSCs (%) Repeat 1 [2]: 7.18% | CD44^hiCD24^lo CSCs (%) Repeat 2 [2]: 7.11% | CD44^hiCD24^lo CSCs (%) Repeat 3 [2]: 7.14%

CCCCCCCCCCCCCC(=O)N[C@H](C(=O)N[C@@H](C)C(=O)N[C@H](C(=O)N[C@@H](Cc1ccccc1)C(=O)N[C@@H](CCCNC(=N)N)C(=O)N[C@@H](CC(C)C)C(=O)N[C@@H](CCCNC(=N)N)C(=O)N[C@@H](CCCCN)C(=O)NCC(=O)N[C@@H](CCCNC(=N)N)C(=O)N[C@@H](CCSC)C(=O)N[C@@H](CCSC)C(=O)N[C@@H](CC(=O)O)C(=O)N[C@H](C(=O)N[C@@H](CCCCN)C(=O)N[C@@H](CCCCN)C(N)=O)C(C)C)[C@@H](C)CC)[C@@H](C)O [Peptide 2815303, Myristoyl-TAIFRLRKGRMMDVKK-NH2] (Myristoyl-TAIFRLRKGRMMDVKK-NH2)
COI (Cell Count) [1]: 18 | COI, Live Single Cells (Cell Count) [1]: 8 | COI, Single (Cell Count) [1]: 17 | Total Cell Count [1]: 10195 | Inhibition of CSCs (%) Repeat 1 [2]: 76.31% | Inhibition of CSCs (%) Repeat 2 [2]: 81.14% | Inhibition of CSCs (%) Repeat 3 [2]: 80.95% | CD44^hiCD24^lo CSCs (%) [2]: 25.00% | COI, Live Single CD44^hiCD24^lo CSCs (Cell Count) [2]: 2 | Average Inhibition of CSCs (%) [2]: 79.47% | CD44^hiCD24^lo CSCs (%) Repeat 1 [2]: 21.23% | CD44^hiCD24^lo CSCs (%) Repeat 2 [2]: 16.92% | CD44^hiCD24^lo CSCs (%) Repeat 3 [2]: 17.09%

CCCCCCCCCCCCCC(=O)N[C@@H](CC(C)C)C(=O)N[C@H](C(=O)N[C@@H](Cc1ccccc1)C(=O)N[C@H](C(=O)N[C@@H](Cc1ccccc1)C(=O)N[C@@H](CCCNC(=N)N)C(=O)N[C@@H](CC(C)C)C(=O)N[C@@H](CCCNC(=N)N)C(=O)N[C@@H](CCCCN)C(=O)NCC(=O)N[C@@H](CCCNC(=N)N)C(=O)N[C@@H](CCSC)C(=O)N[C@@H](CCSC)C(=O)N[C@@H](CC(=O)O)C(=O)N[C@H](C(=O)N[C@@H](CCCNC(=N)N)C(=O)N[C@@H](CCCCN)C(N)=O)C(C)C)[C@@H](C)CC)[C@@H](C)O [Peptide 2853840, Myristoyl-LTFIFRLRKGRMMDVRK-NH2] (Myristoyl-LTFIFRLRKGRMMDVRK-NH2)
COI (Cell Count) [1]: 709 | COI, Live Single Cells (Cell Count) [1]: 308 | COI, Single (Cell Count) [1]: 487 | Total Cell Count [1]: 3715 | Inhibition of CSCs (%) Repeat 1 [2]: 82.01% | Inhibition of CSCs (%) Repeat 2 [2]: 81.08% | Inhibition of CSCs (%) Repeat 3 [2]: 83.80% | CD44^hiCD24^lo CSCs (%) [2]: 18.83% | COI, Live Single CD44^hiCD24^lo CSCs (Cell Count) [2]: 58 | Average Inhibition of CSCs (%) [2]: 82.30% | CD44^hiCD24^lo CSCs (%) Repeat 1 [2]: 16.13% | CD44^hiCD24^lo CSCs (%) Repeat 2 [2]: 16.97% | CD44^hiCD24^lo CSCs (%) Repeat 3 [2]: 14.54%

Reference: patent US20200339691A1, “PROTEINACEOUS MOLECULES AND USES THEREFOR” (priority 2018, published 2020)
